Values of other authors as cited in patent US20080213192A1, “AEROSOL LOTION FORMULATIONS” (Schering-Plough Healthcare Products, Inc., priority 2006, published 2008).

Details: Raval and Parrott, J. Pharm. Sci. 1967

For `COC(=O)c1ccc(O)cc1` [methylparaben], the “pH above which methylparaben hydrolyzes” value is listed as over 6.
